Where “and” joins values, the source holds several entries; their conditions need not be identical. Identical values can stand only once. Like-named read-outs stand apart in the source and are kept apart here.
Legend:
T47D ESR1 Y537S cells = test: Live-cell imaging growth studies and EC50 for growth inhibition, T47D ESR1 Y537S; format: cell-based; conditions: Homo sapiens, read-out: Approximate Half-maximal Effective Concentration (EC50) for growth inhibition
Procedure: (§1) MCF7, T47D, T47D ESR1 Y537S or T47D ESR1 D538G cells were seeded at 2×10^5 density per well in 6-well tissue culture-treated plates in DMEM/F12/10% FBS (2 mL total volume). […] The plate was then placed in the Incucyte® S3 Live-Cell Analysis System and images were acquired every 4 hours for a total of 5 days (120 hours). Data were analyzed using the Incucyte® Software v2020C which quantified cell surface area coverage as confluence values. Relative growth was calculated for all timepoints for all growth conditions relative to the confluence value observed for the control at 120 hours. Graphing and statistical analyses were performed using Graphpad Prism (GraphPad Software).

MCF7 cells = test: Live-cell imaging growth studies and EC50 for growth inhibition, MCF7; format: cell-based; conditions: Homo sapiens, read-out: Approximate Half-maximal Effective Concentration (EC50) for growth inhibition
Procedure: as §1

[1] = system: ESR1 variants Y537S and D538G; test: In vitro ERα degradation in ESR1 variant cell lines; format: cell-based, human; conditions: FIG. 15
MCF7 xenograft = test: Tumor growth inhibition in orthotopic MCF7/estradiol xenograft model, single agent; format: in vivo, NOD/SCID mice; conditions: for tumor growth inhibition (TGI): 28 days, vs vehicle
Procedure: (§2) Species: NOD/SCID female mice (Charles River, 6-7 weeks old upon arrival).
(§3) Animal handling: Axial mammary fat pad implantation of 5×10^6 MCF7 cells/200 per mouse (17β-estradiol 0.36 mg 90-day pellet implanted day before).
Tumor volumes were evaluated twice per week for twenty-eight days.
(§4) Sampling: Tumors were measured twice weekly. Terminal sacrifice was ˜18 hr after last dose; tumors were harvested, divided, and flash frozen. ERα levels were determined by immunoblotting.
Tumor volume calculation: Tumor Volume=(width×width×length)/2, where all measurements are in mm and the tumor volume is in mm^3.
Tumor Growth Inhibition (TGI) calculation: TGI (%)

ESR1 (Y537S) PDX = ESR1 (Y537S) PDX model tumor growth inhibition; format: in vivo; conditions: for tumor growth inhibition (TGI): ESR1 (Y537S) PDX, 28 days
[2] = Preclinical pharmacokinetics, oral once daily; conditions: in vivo, total drug concentrations; for AUC(0-t): read-out: Mean AUC0-24
Excerpt: The pharmacokinetic results are shown below in Table 1.

ERα = molecular target: T1, ERα (Homo sapiens, UniProt P03372); test: In vivo ERα degradation in MCF7 xenograft tumors (immunoblot); parameters: species or system NOD/SCID mice; conditions: for % ERα ↓: MCF7/estradiol model
T1 construct: robustly degrades ER in ER-positive breast cancer cell lines; endogenous in cells; host or cells: MCF7, T47D (cell culture); MCF7 and tamoxifen-resistant MCF7 xenograft tumours in mice
T1 sequence (P03372 1-595): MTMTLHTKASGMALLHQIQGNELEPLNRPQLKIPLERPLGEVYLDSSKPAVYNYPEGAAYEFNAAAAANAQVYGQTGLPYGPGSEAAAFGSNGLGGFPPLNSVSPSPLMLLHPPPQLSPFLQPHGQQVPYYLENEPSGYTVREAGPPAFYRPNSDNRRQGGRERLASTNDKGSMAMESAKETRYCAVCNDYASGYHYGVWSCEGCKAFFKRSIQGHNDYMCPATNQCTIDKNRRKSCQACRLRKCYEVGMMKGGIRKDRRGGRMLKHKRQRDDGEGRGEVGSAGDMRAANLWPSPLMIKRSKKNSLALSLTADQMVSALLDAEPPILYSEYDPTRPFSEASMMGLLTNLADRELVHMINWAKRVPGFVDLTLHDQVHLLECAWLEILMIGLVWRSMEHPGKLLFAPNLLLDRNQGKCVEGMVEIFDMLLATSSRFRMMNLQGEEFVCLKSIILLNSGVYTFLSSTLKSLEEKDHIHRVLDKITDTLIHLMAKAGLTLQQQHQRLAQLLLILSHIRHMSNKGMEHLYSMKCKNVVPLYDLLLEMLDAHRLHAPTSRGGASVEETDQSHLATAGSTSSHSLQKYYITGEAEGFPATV
Procedure: Approximately 18 hours after the final administration, mice were sacrificed, and MCF7 xenografts were harvested and lysed to determine ER levels by immunoblotting. […] Diet was supplemented with peanut butter to help maintain body weights.
as §2, §3
Dosing: Oral (gavage), once a day (QD) for 3 days (QD×3). Vehicle: 2% Tween80/PEG400 (‘PEG/Tween’).
Sampling: Terminal sacrifice was ˜18 hrs after last dose; tumors were harvested, divided and flash frozen. ERα levels were determined by immunoblotting.
Cell Lysis: flash frozen tumors were removed from −80° C. storage and placed on dry ice. RIPA lysis buffer and Halt protease inhibitors were used at 400 μl per tumor sample. A steel ball (5 mm) was placed in each sample for tissue disruption. Samples were lysed with TissueLyzer at 24 Hz for 4 minutes. The homogenization was stopped half way through the process and the block flipped over for the duration of the process. Steel beads were pulled out of the tubes and the lysates were spun down at 21,000×g for 15 minutes at 4° C. Lysates were then measured for total protein concentration by BCA (per manufacturer's protocol).
Detection of proteins by immunoblot: lysates were mixed with sample buffer and reducing agent (per manufacturer's protocol). Samples were denatured at 95° C. for 5 minutes in thermal cycler. Samples were cooled and spun down (5000×g; 1 minute) prior to loading on gel. Gels were loaded with 10 μg total protein per lane. Samples were loaded on 4-15% Criterion Tris/Glycine gels and run for 25 minutes at 250 constant volts in 1×Tris/Glycine/SDS buffer. Protein was transferred from gels to nitrocellulose with Bio-Rad Turbo on default setting. All blots were rinsed with distilled water and blocked for 1 hour at RT in 5% BSA in TBS-T (TBS with 0.1% Tween) on rocker. The blots were cut so that beta-actin and ERα can be detected from the same lane/sample.
Blots were incubated with primary antibody in 5% BSA in TBST (0.1%) overnight at 4° C. on rocker:
Blot was washed with TBST (0.1%) three times for 5 minutes on rocker at RT. Secondary antibody was added, and blots incubated at RT on rocker for 1 hour (1:18,000 anti-rabbit-HRP in TBS-T). Blots were washed 3 times in TBST (0.1%) for 5 minutes at RT on the rocker. Signal was developed with Pierce WestFemto maximum sensitivity substrate for 5 minutes and blots imaged on BioRad ChemiDoc.
as §4
At study termination, the tumors were removed from the mice, and ERα levels were determined by immunoblotting the tumor homogenates.
Sampling: tumors were measured twice weekly. Terminal sacrifice was ˜18 hr after last dose; tumors were harvested, divided, and flash frozen. ERα levels were determined by immunoblotting.

## O=C1CC[C@H](N2Cc3cc(N4CCN(CC5CCN(c6ccc([C@@H]7c8ccc(O)cc8CC[C@@H]7c7ccccc7)cc6)CC5)CC4)ccc3C2=O)C(=O)N1 [Compound (I-c), (3S)-3-[5-[4-[[1-[4-[(1R,2S)-6-hydroxy-2-phenyl-tetralin-1-yl]phenyl]-4-piperidyl]methyl]piperazin-1-yl]-1-oxo-isoindolin-2-yl]piperidine-2,6-dione]
T47D ESR1 Y537S cells
  EC50: 50 nM
MCF7 cells
  EC50: 10 nM
[1]
  degradation of clinically-relevant ESR1 variants Y537S and D538G: degrades
MCF7 xenograft; 3 mg/kg oral QD x 28
  Day 28 Tumor volume (mean ± SD): 286 ± 206 mm^3
  TGI (% vehicle): 85 % vehicle
MCF7 xenograft; 3 mg/kg oral once daily
  tumor growth inhibition (TGI): 85%
MCF7 xenograft; 10 mg/kg oral QD x 28
  Day 28 Tumor volume (mean ± SD): 226 ± 118 mm^3
  TGI (% vehicle): 98 % vehicle
MCF7 xenograft; 10 mg/kg oral once daily
  tumor growth inhibition (TGI): 98% and 94%
MCF7 xenograft; 30 mg/kg oral QD x 28
  Day 28 Tumor volume (mean ± SD): 115 ± 79 mm^3
  TGI (% vehicle): 124 % vehicle
MCF7 xenograft; 30 mg/kg oral once daily
  tumor growth inhibition (TGI): 124%
ESR1 (Y537S) PDX; 10 mg/kg oral once daily
  tumor growth inhibition (TGI): 99%
ESR1 (Y537S) PDX; 30 mg/kg oral once daily
  tumor growth inhibition (TGI): 106%
ESR1 (Y537S) PDX; ESR1 Y537S hormone-independent PDX, 10 mg/kg
  tumor growth: completely inhibited growth
[2]; 3 mg/kg oral once daily
  Cmax: 84 ng/mL
  AUC(0-t): 658 ng·h/mL
[2]; 10 mg/kg oral once daily
  Cmax: 312 ng/mL
  AUC(0-t): 2540 ng·h/mL
[2]; 30 mg/kg oral, single dose
  Cmax: 962 ng/mL
  AUC(0-t): 5720 ng·h/mL
ERα; 10 mg/kg p.o. once daily x 3 days, ~18 h after last dose
  reduction of tumor ERα levels vs vehicle: up to 95%
ERα; 3, 10 and 30 mg/kg daily oral, 28 days (all doses), at study termination
  reduction of tumor ERα levels vs vehicle: > 94% and > 90%
ERα; 3 mg/kg
  % ERα ↓: 95%
ERα; 10 mg/kg
  % ERα ↓: 97%
ERα; 30 mg/kg
  % ERα ↓: 94%

— patent US20220193072A1, “METHODS OF TREATING BREAST CANCER WITH TETRAHYDRONAPHTHALENE DERIVATIVES AS ESTROGEN RECEPTOR DEGRADER” (Arvinas Operations, Inc., priority 2020, published 2022)
